PMC9544108 (Chemmedchem, 2022)
Numbered stars: 1 amine (or outer) side, 2 acyl side, 3 side chain; on linkers, the order of the positions; unused ones are H or OH. Square brackets hold non-standard residues; d marks the D form. Peptide text beside a SMILES is read from it. γGlu = O=C(O)[C@H](CCC(=O)[*:2])N[*:1]; βAsp = O=C(O)[C@H](CC(=O)[*:2])N[*:1]; Cya = N[C@@H](CS(=O)(=O)O)C(=O)O

Assays:
Pb-poisoned HT-29 cells [1] = assay: recovery assay of Pb-poisoned cells (crystal violet); assay type: cell-based, human; conditions: HT-29, Pb(NO3)2 0.2 mM, further 23 h; for recovery of Pb-poisoned cells, in words: compound 0.02-1 mM added 1 h later; for viability of Pb-poisoned cells relative to the negative control (recovery): peptide added 1 h later, up to 1 mM (5 equiv.), at least 3 independent experiments
Protocol: Human HT‐29 cells were used to investigate the peptides′ detoxification capabilities.[17, 18, 22] Adhered cells were poisoned with Pb(NO3)2 (200 μM) and 1 h later treated with various concentrations of peptides[28] and of the benchmark drugs, ranging from 20 μM to 1 mM that are equal to 0.1–5 equivalents compared with the Pb(II) concentration. After an incubation of 23 h, the cells were washed and quantified with the crystal violet assay.[22, 29] Each experiment included both positive and negative controls, which were either cells left untreated with both metal ions and peptides or only poisoned with Pb(NO3)2, respectively. Each dataset was then compared to the negative control to report the peptide recovery abilities (Figures 3A–B and S2).
LCMS (ESI) Rt = 0.6 min, observed as [M+H]+
HT-29 cells were chosen as a representative human cell-line due to their high Pb sensitivity and as their medium, RPMI-1640, is compatible with Pb(II), inhibiting metal precipitation.
HT-29 cells were grown in 25 mM HEPES RPMI -1640 medium, supplemented with 1% L- […]
37 °C and 5% CO2. 96-well plates were prepared such that every well contain ed 10,000 cells in […]
concentration 0.2 mM). 10 µL of H2O were added to the positive control wells. 60 min after the […]
(which are 0.1, 0.25, 0.5, 1, 2 and 5 equivalents, respectively). To the positive control wells containing no metal and the negative control wells containing metal but no peptides, 10 µL of H2O were added, respectively. Each condition was performed in triplicates. […]
gently shaken (50 rpm) for 20 min. […]
dye was observed and allowed to dry overnight.
Recovery% = A[PepX]−A[blank] × 100% (S4)
A[blank] – absorbance of an empty well
Each experiment was performed on three independent repeats. Values are mean ± SD. […]
control for the recovery). Values are mean ± SD of at least 3 repeats. […]
and 1.0 mM. […] Each condition was […]

HT-29 cells [2] = conditions: HT-29, 0.02-1.0 mM, 23 h, crystal violet, no Pb
Protocol: We then tested the effect of 8 and 9 alone on cell viability compared with the two benchmark drugs.
96-well plates were prepared such that every well contained 10,000 HT-29 cells in 100 µL
medium, and the cells were allowed to adhere for 24 h.
To all wells but the positive control wells, 10 µL of each solution of the examined peptides (0.24,
and 1.0 mM. To the positive control wells, 10 µL of H 2O were added. Each condition was
performed in triplicates. The plates were incubated at 37 °C, and 5% CO2 for 23 h, after which the
medium was removed, the wells were washed with H2O, and 50 µL of crystal violet solution[10]
(500 mg crystal violet powder in 20 mL CH3OH and 80 mL H2O) were added to each well. The
plates were gently shaken (50 rpm) for 20 min. The plates were then washed with H 2O until no
more unbound dye was observed and allowed to dry overnight. 100 µL of CH3OH were added to
each well, and the plates were gently shaken (50 rpm) for 20 min, after which their absorbance
The toxicity of each concentration of a peptide was calculated according to Equation S5:
𝑇𝑜𝑥𝑖𝑐𝑖𝑡𝑦% = 𝐴[𝑃𝑒𝑝𝑋]−𝐴[𝑏𝑙𝑎𝑛𝑘] × 100% (S5)
A[PepX] – absorbance of well in the presence of X mM of peptide
A[POS] – absorbance of well that contains no peptides

HT-29 cells [3] = assay: DCF assay, ROS production; assay type: cell-based, human; conditions: HT-29, peptide 1 mM, with or without Pb(II) 0.2 mM
Protocol: ROS production determination in the presence of Pb(II) ions […]
the cells were allowed to adhere overnight.
To all wells but the positive control wells, 5 µL of 2.2 mM Pb(NO3)2 were added (final concentration 0.2 mM). 5 µL of H2O were added to the positive control wells. 1 h after, 5 µL of 8 […]
control wells containing no metal and the negative control wel ls containing metal but no peptide, […]
removed, the wells were washed with PBS , and 50 µL of PBS were added to each well. 6.75 µL of 2',7'-dichlorodihydrofluorescein diacetate (H 2DCF-DA) (2.1 mM in DMSO) were added (final concentration 0.25 mM) and gently mixed. The plates were incubated for an additional 1 h.
Fluorescence was then measured at an excitation of 490 nm and an emission of 520 nm.
ROS production determination in the absence of Pb(II) ions […]
concentrations of 1 mM. To the positive control well s, 5 µL of H2O were added.
The plates were incu bated at 37 °C, and 5% CO2 for additional 23 h, after which the medium was […]

Pb-poisoned HT-29 cells [4] = assay: ICP-MS Pb content of cells and supernatant (mode of action); assay type: cell-based, human; conditions: for SN/C, ratio of Pb content in ppb in supernatants and cells: ICP-MS, three independent experiments
Protocol: In order to determine the mode of action of 8, by which it enables to achieve a high recovery of Pb‐poisoned HT‐29 cells, inductively coupled plasma mass spectrometry (ICP‐MS) was employed to determine the Pb content of the Pb‐poisoned cells and their respective supernatant. First, HT‐29 cells were poisoned with Pb(NO3)2 (0.2 mM) and the Pb content in the cells and in the medium was determined after 1 and 24 h.[22] The measurement after 1 h was performed to assess the Pb distribution at the time of peptide addition during the recovery experiment and the one after 24 h to reveal the distribution resulting without intervention. At both times, the fraction of intracellular Pb was low and most of the toxic metal was in the medium (Table S10). […] Next, we added 8 to the cells before and after poisoning them with Pb(II) ions to assess whether 8 prevents Pb(II) ions from entering the cells, expels them from the cells or transforms Pb(II) into a non‐toxic complex locally. […] Since treating Pb‐poisoned cells with 8 enables higher viability, despite the fact that their relative intracellular Pb content is elevated, we hypothesize that Pb crosses the cellular membrane from outside as a membrane permeable, non‐toxic Pb(II)‐8 complex.
Cells with Pb(II) ions only were analyzed after 1 or 24 h incubation with the metal salt as reference values:
To all wells, 10 µL of 2.2 mM Pb(NO3)2 were added (final concentration 0.2 mM) and the cells were incubated at 37 °C, and 5% CO2 for 1 h, after which samples were prepared for analysis by […]
Cells treated with 8 were analyzed in two sets that differed in the order of peptide and metal salt […]
After respective incubation times, the supernatants were homogenized by gently pipetting up and down and 50 µL were transferred and digested with 100 µL HNO3 (70%) for 1 h in a 15 mL tube. […] Pb in the supernatant was then quantified using ICP-MS.
Since the cells are adherent, residual supernatant was removed from each well and the cells were washed with RPMI (3x200 µL). […] Pb in the cells was then quantified using ICP-MS. […]

[5] = Ellman's test, oxidation of thiols to disulfide; assay type: physicochemical; conditions: 8 100 µM in H2O with 10% 1 M Tris buffer pH 8.0, RT, DTNB 300 µM, absorbance 412 nm
Protocol: (§1) To examine this, we used the Ellman's test,[43] where 8 was incubated in H2O, and the Ellman's reagent was added at given time points (Figure S9).[22] While 8 was started to be slightly oxidized within the first 2 h and was steadily forming disulfide bonds, after 24 h, roughly 40 % of the thiols were still reduced, enabling metal coordination within the experimental time frame of our in vitro study.
Calibration curve: to a 96-well plate with freshly-prepared solutions of Ac-Cys-OMe (12.5-200 µM) in H2O supplemented with 10% 1 M Tris buffer pH 8.0, a fresh solution of Ellman’s reagent (5,5'-dithiobis-(2-nitrobenzoic acid; DTNB; final concentration of 300 µM in H2O supplemented with 12.5 mM sodium acetate) was added. The absorbance of each well at 412 nm was then determined. The average and standard deviation within six wells containing the same AA concentration were calculated and linearly plotted using Origin software .
Seven 96-well plates were prepared identically with fresh solutions of 8 (100 µM) in H2O supplemented with 10% 1 M Tris buffer pH 8.0, where each condition is replicated in 3 wells. […] The absorbance of each well at 412 nm was then determined , and the concentration of free thiol per well was calculated according to the cal ibration curve. For each time frame, the average and standard deviation were calculated. […]

[6] = assay type: in vitro ADME; conditions: human blood serum (Sigma Aldrich), 100 µM peptide, 37 °C, aliquots from 0 min up to 48 h, precipitation with CH3CN:H2O 1:1, LCMS
Protocol: as §1
9 Stability in human blood serum
A freshly prepared solution of 8 (in H2O) was added to the human blood serum (HBS, purchased from Sigma Aldrich) to reach a final peptide concentration of 100 µM and a volume of 1 mL.
Samples were pipetted carefully up and down three times and incubated at 37 °C. Aliquots (50 µL) were taken periodically, starting from the addition of the serum (0 min) and continuing after 1 h up to 48 h. Aliquots were poured into a mixture of CH3CN:H2O (1:1; 200 µL) to precipitate the HBS proteins. The samples were cooled on ice for 30 min and centrifuged at 4’4 00 rpm for 10 min. The supernatant was analyzed by LCMS.
Figure S10. Stability of 8 in human blood serum.

Row | Compound | recovery of Pb-poisoned cells, in words (Pb-poisoned HT-29 cells [1]) | effect of compound alone on cell viability, in words (HT-29 cells [2]) | viability of Pb-poisoned cells relative to the negative control (recovery) (Pb-poisoned HT-29 cells [1]) | other results
1 | C[C@@H]1NC(=O)CNC(=O)[C@H](CS)NC(=O)CC[C@@H](C(=O)O)NC(=O)[C@H](C)NC(=O)CNC(=O)[C@H](CS)NC(=O)CC[C@@H](C(=O)O)NC1=O [peptide 2] (cyclo(A[γGlu]CGA[γGlu]CG)) | enhanced viability of cells treated with 1 mM of 2 compared with lin2 | – | – | –
2 | O=C(O)CN(CCN(CC(=O)O)CC(=O)O)CC(=O)O [EDTA, ethylenediaminetetraacetic acid, reference compound] | – | slight toxicity | – | –
3 | C[C@@H]1NC(=O)CNC(=O)[C@H](CS)NC(=O)C[C@@H](C(=O)O)NC(=O)[C@H](C)NC(=O)CNC(=O)[C@H](CS)NC(=O)C[C@@H](C(=O)O)NC1=O [peptide 5] (cyclo(A[βAsp]CGA[βAsp]CG)) | least active one | – | – | –
4 | NC(=O)C[C@@H]1NC(=O)CNC(=O)[C@H](CS)NC(=O)CC[C@@H](C(=O)O)NC(=O)[C@H](CC(N)=O)NC(=O)CNC(=O)[C@H](CS)NC(=O)CC[C@@H](C(=O)O)NC1=O [peptide 8] (cyclo(CGN[γGlu]CGN[γGlu])) | – | positively affect cell viability | approximately 2.5 times | oxidative stress (ROS) compared with untreated cells, in words (HT-29 cells [3]): decreased the oxidative stress compared to untreated cells; supernatant-to-cells ratio of Pb compared with cells not treated with peptide, in words (Pb-poisoned HT-29 cells [4]; 8 added pre- or post-poisoning): reduced by approximately half; SN/C, ratio of Pb content in ppb in supernatants and cells (Pb-poisoned HT-29 cells [4]; condition 3: HT-29 poisoned with 0.2 mM Pb(NO3)2 1 h, then 1 mM 8, further 23 h): 56.3 ± 27.5; SN/C, ratio of Pb content in ppb in supernatants and cells (Pb-poisoned HT-29 cells [4]; condition 4: HT-29 given 1 mM 8 for 1 h, then 0.2 mM Pb(NO3)2, further 23 h): 43.3 ± 10.23; time within which oxidation started [5]: ≤ 2 h; thiols still reduced ([5]; after 24 h, 3 wells): roughly 40%; time stable in human blood serum [6]: at least 48 h
5 | O=C1CC[C@@H](C(=O)O)NC(=O)[C@H](CS(=O)(=O)O)NC(=O)CNC(=O)[C@H](CS)NC(=O)CC[C@@H](C(=O)O)NC(=O)[C@H](CS(=O)(=O)O)NC(=O)CNC(=O)[C@H](CS)N1 [peptide 9] (cyclo(CG[Cya][γGlu]CG[Cya][γGlu])) | – | no toxicity at all | approximately 2.5 times | –
